Data: patent US9375497B2, “[F-18]-labeled L-glutamic acid, [F-18]-labeled L-glutamine, derivatives thereof and use thereof and processes for their preparation” (BAYER SCHERING PHARMA AKTIENGESELLSCHAFT, priority 2006, dated 2016)

Key:
[1] = system: A549 (non-small-cell bronchial carcinoma) cells; experiment: Tumor cell uptake in A549 cells; assay type: cell-based, human; details: 250 kBq/well, compared to [^18F]FDG
Description: For the evaluation of the tumor cell uptake of [^18F]glutamic acid, cell uptake experiments were carried out in human A549 (non-small-cell bronchial carcinoma) and HT29 (colonic carcinoma) cells. The tumor cell uptake of the glutamic acid derivatives was compared to
[^18F]FDG (gold standard for oncological PET investigations).
FIG. 2: Comparison of the time-dependent tumor cell uptake of [^18F]-4-glutamic acid [20-35 μM] (on the left) and [F-18]FDG [2 μM] (on the right) in A549 cells. The cells were incubated with 250 kBq/well. For displacement experiments, L-glutamic acid (1 mM) or glucose (5 mM) was used (mean value±standard deviation, n=3).

[2] = system: murine F9 teratocarcinoma model in NMRI nude mice; experiment: Tumor enrichment and tissue distribution, F9 teratocarcinoma model; details: for Tumor/tissue quotient, Blood / Tumor/tissue quotient, Brain / Tumor/tissue quotient, Fat / Tumor/tissue quotient, Heart / Tumor/tissue quotient, Intestine / Tumor/tissue quotient, Kidney / Tumor/tissue quotient, Liver / Tumor/tissue quotient, Lung / Tumor/tissue quotient, Muscle / Tumor/tissue quotient, Ovary / Tumor/tissue quotient, Skin / Tumor/tissue quotient, Spleen / Tumor/tissue quotient, Stomach / Tumor/tissue quotient, Uterus: single i.v.; for Tissue uptake, Blood / Tissue uptake, Brain / Tissue uptake, Fat / Tissue uptake, Heart / Tissue uptake, Intestine / Tissue uptake, Kidney / Tissue uptake, Liver / Tissue uptake, Lung / Tissue uptake, Muscle / Tissue uptake, Ovary / Tissue uptake, Skin / Tissue uptake, Spleen / Tissue uptake, Stomach / Tissue uptake, Tumor / Tissue uptake, Uterus: single i.v. 370 kBq
Description: For the evaluation of the tumor enrichment and the tissue distribution in experimental animals, [^18F]-4-glutamic acid was tested in a murine F9 teratocarcinoma model in NMRI nude mice and a murine B16F1 melanoma model in C57BI6 mice.
For this, 1×10^6 cells (F9) or 5×10^5 cells (B16F1) respectively were suspended in 100 μl of phosphate-buffered physiological saline solution and inoculated subcutaneously into the right, rear flank of the corresponding experimental animal species (NMRI for F9 and 057-BI6 for B16F1) (Berndorff et al. Clin. Cancer Res. 2005, 11, 2005). […] [^18F]-4-Glutamic acid (370 kBq, in 100 μl of physiological saline solution) was administered intravenously to the tail vein. […]

NC(CC([18F])C(=O)O)C(=O)O (stereo not drawn) [[^18F]4-glutamic acid, 4-[F-18]fluoroglutamic acid]
tumor cell uptake [1]: surprisingly high uptake
Tumor/tissue quotient, Blood ([2]; 0.25 h (times as Table 1)): 1.14
Tumor/tissue quotient, Brain ([2]; 0.25 h (times as Table 1)): 5.6
Tumor/tissue quotient, Fat ([2]; 0.25 h (times as Table 1)): 5.85
Tumor/tissue quotient, Heart ([2]; 0.25 h (times as Table 1)): 1.01
Tumor/tissue quotient, Intestine ([2]; 0.25 h (times as Table 1)): 1.26
Tumor/tissue quotient, Kidney ([2]; 0.25 h (times as Table 1)): 0.4
Tumor/tissue quotient, Liver ([2]; 0.25 h (times as Table 1)): 0.86
Tumor/tissue quotient, Lung ([2]; 0.25 h (times as Table 1)): 0.57
Tumor/tissue quotient, Muscle ([2]; 0.25 h (times as Table 1)): 1.67
Tumor/tissue quotient, Ovary ([2]; 0.25 h (times as Table 1)): 2.43
Tumor/tissue quotient, Skin ([2]; 0.25 h (times as Table 1)): 1.25
Tumor/tissue quotient, Spleen ([2]; 0.25 h (times as Table 1)): 1.12
Tumor/tissue quotient, Stomach ([2]; 0.25 h (times as Table 1)): 1.12
Tumor/tissue quotient, Uterus ([2]; 0.25 h (times as Table 1)): 1.18
Tissue uptake, Blood ([2]; 0.25 h): 2.51 % dose/g
Tissue uptake, Brain ([2]; 0.25 h): 0.52 % dose/g
Tissue uptake, Fat ([2]; 0.25 h): 0.85 % dose/g
Tissue uptake, Heart ([2]; 0.25 h): 2.86 % dose/g
Tissue uptake, Intestine ([2]; 0.25 h): 2.28 % dose/g
Tissue uptake, Kidney ([2]; 0.25 h): 7.24 % dose/g
Tissue uptake, Liver ([2]; 0.25 h): 3.37 % dose/g
Tissue uptake, Lung ([2]; 0.25 h): 5.08 % dose/g
Tissue uptake, Muscle ([2]; 0.25 h): 1.72 % dose/g
Tissue uptake, Ovary ([2]; 0.25 h): 1.34 % dose/g
Tissue uptake, Skin ([2]; 0.25 h): 2.28 % dose/g
Tissue uptake, Spleen ([2]; 0.25 h): 2.56 % dose/g
Tissue uptake, Stomach ([2]; 0.25 h): 2.56 % dose/g
Tissue uptake, Tumor ([2]; 0.25 h): 2.90 % dose/g
Tissue uptake, Uterus ([2]; 0.25 h): 2.54 % dose/g
Tumor/tissue quotient, Blood ([2]; 1.0 h (times as Table 1)): 3.46
Tumor/tissue quotient, Brain ([2]; 1.0 h (times as Table 1)): 4.2
Tumor/tissue quotient, Fat ([2]; 1.0 h (times as Table 1)): 7.37
Tumor/tissue quotient, Heart ([2]; 1.0 h (times as Table 1)): 2.73
Tumor/tissue quotient, Intestine ([2]; 1.0 h (times as Table 1)): 0.97
Tumor/tissue quotient, Kidney ([2]; 1.0 h (times as Table 1)): 1.38
Tumor/tissue quotient, Liver ([2]; 1.0 h (times as Table 1)): 3.48
Tumor/tissue quotient, Lung ([2]; 1.0 h (times as Table 1)): 1.34
Tumor/tissue quotient, Muscle ([2]; 1.0 h (times as Table 1)): 2.51
Tumor/tissue quotient, Ovary ([2]; 1.0 h (times as Table 1)): 5.05
Tumor/tissue quotient, Skin ([2]; 1.0 h (times as Table 1)): 3.4
Tumor/tissue quotient, Spleen ([2]; 1.0 h (times as Table 1)): 3.22
Tumor/tissue quotient, Stomach ([2]; 1.0 h (times as Table 1)): 2.45
Tumor/tissue quotient, Uterus ([2]; 1.0 h (times as Table 1)): 2.59
Tissue uptake, Blood ([2]; 1.0 h): 0.51 % dose/g
Tissue uptake, Brain ([2]; 1.0 h): 0.43 % dose/g
Tissue uptake, Fat ([2]; 1.0 h): 0.26 % dose/g
Tissue uptake, Heart ([2]; 1.0 h): 0.64 % dose/g
Tissue uptake, Intestine ([2]; 1.0 h): 1.83 % dose/g
Tissue uptake, Kidney ([2]; 1.0 h): 1.30 % dose/g
Tissue uptake, Liver ([2]; 1.0 h): 0.50 % dose/g
Tissue uptake, Lung ([2]; 1.0 h): 1.32 % dose/g
Tissue uptake, Muscle ([2]; 1.0 h): 0.70 % dose/g
Tissue uptake, Ovary ([2]; 1.0 h): 0.41 % dose/g
Tissue uptake, Skin ([2]; 1.0 h): 0.53 % dose/g
Tissue uptake, Spleen ([2]; 1.0 h): 0.54 % dose/g
Tissue uptake, Stomach ([2]; 1.0 h): 1.26 % dose/g
Tissue uptake, Tumor ([2]; 1.0 h): 1.75 % dose/g
Tissue uptake, Uterus ([2]; 1.0 h): 0.72 % dose/g
Tumor/tissue quotient, Blood ([2]; 2.0 h (times as Table 1)): 9.06
Tumor/tissue quotient, Brain ([2]; 2.0 h (times as Table 1)): 7.06
Tumor/tissue quotient, Fat ([2]; 2.0 h (times as Table 1)): 23.67
Tumor/tissue quotient, Heart ([2]; 2.0 h (times as Table 1)): 9.22
Tumor/tissue quotient, Intestine ([2]; 2.0 h (times as Table 1)): 1.54
Tumor/tissue quotient, Kidney ([2]; 2.0 h (times as Table 1)): 5.22
Tumor/tissue quotient, Liver ([2]; 2.0 h (times as Table 1)): 9.23
Tumor/tissue quotient, Lung ([2]; 2.0 h (times as Table 1)): 4.09
Tumor/tissue quotient, Muscle ([2]; 2.0 h (times as Table 1)): 9.5
Tumor/tissue quotient, Ovary ([2]; 2.0 h (times as Table 1)): 17.74
Tumor/tissue quotient, Skin ([2]; 2.0 h (times as Table 1)): 9.4
Tumor/tissue quotient, Spleen ([2]; 2.0 h (times as Table 1)): 18
Tumor/tissue quotient, Stomach ([2]; 2.0 h (times as Table 1)): 6.85
Tumor/tissue quotient, Uterus ([2]; 2.0 h (times as Table 1)): 6.96
Tissue uptake, Blood ([2]; 2.0 h): 0.21 % dose/g
Tissue uptake, Brain ([2]; 2.0 h): 0.27 % dose/g
Tissue uptake, Fat ([2]; 2.0 h): 0.09 % dose/g
Tissue uptake, Heart ([2]; 2.0 h): 0.21 % dose/g
Tissue uptake, Intestine ([2]; 2.0 h): 1.21 % dose/g
Tissue uptake, Kidney ([2]; 2.0 h): 0.37 % dose/g
Tissue uptake, Liver ([2]; 2.0 h): 0.20 % dose/g
Tissue uptake, Lung ([2]; 2.0 h): 0.48 % dose/g
Tissue uptake, Muscle ([2]; 2.0 h): 0.42 % dose/g
Tissue uptake, Ovary ([2]; 2.0 h): 0.12 % dose/g
Tissue uptake, Skin ([2]; 2.0 h): 0.21 % dose/g
Tissue uptake, Spleen ([2]; 2.0 h): 0.16 % dose/g
Tissue uptake, Stomach ([2]; 2.0 h): 0.33 % dose/g
Tissue uptake, Tumor ([2]; 2.0 h): 1.87 % dose/g
Tissue uptake, Uterus ([2]; 2.0 h): 0.32 % dose/g
tumor enrichment ([2]; F9 teratocarcinoma, 1 h after intravenous administration): 1.75 % ID/g
maximal tumor enrichment ([2]; F9 teratocarcinoma, after intravenous injection (15 min)): 2.90 % ID/g
